Measurements from US9290457B2, “Substituted dihydropyrimidinones and their use as inhibitors of neutrophil elastase activity” (Boehringer Ingelheim International GmbH, priority 2014, dated 2016).
Values after ≈ are worked out from the molar mass of the structure shown.

Key:
[1] = Metabolic stability with human liver microsomes; assay type: in vitro ADME; settings: pooled human liver microsomes, 1 μM compound, 37° C.; for half-life at 1 μM: pH 7.6, read-out: t1/2 INVITRO
Description: Assay for the Determination of Metabolic Stability with Human Liver Microsomes
The metabolic degradation of the test compound is assayed at 37° C. with pooled human liver microsomes. The final incubation volume of 100 μl per time point contains TRIS buffer pH 7.6 (0.1 M), magnesium chloride (5 mM), microsomal protein (1 mg/ml) and the test compound at a final concentration of 1 μM. Following a short preincubation period at 37° C., the reactions are initiated by addition of beta-nicotinamide adenine dinucleotide phosphate, reduced form (NADPH, 1 mM) and terminated by transferring an aliquot into acetonitrile after different time points. Additionally, the NADPH-independent degradation is monitored in incubations without NADPH, terminated at the last time point. The [%] remaining test compound after NADPH independent incubation is reflected by the parameter c(control) (metabolic stability). The quenched incubations are pelleted by centrifugation (10,000 g, 5 min) An aliquot of the supernatant is assayed by LC-MS/MS for the amount of parent compound.
The half-life (t1/2 INVITRO) is determined by the slope of the semilogarithmic plot of the concentration-time profile. The intrinsic clearance (CL_[…]) is calculated by considering the amount of protein in the incubation: CL_[…][μl/min/mg protein]=(ln 2/(half-life[min]*protein content[mg/ml]))*1,000.
The half-life (t1/2 INVITRO) values of selected compounds in the metabolic stability assay human liver microsomes described above are listed in Table 3.

human hepatocytes = assay: Metabolic stability with human hepatocytes; assay type: in vitro ADME; settings: 1 μM compound, well stirred model
Description: Assay for the Determination of Metabolic Stability with Human Hepatocytes
The metabolic degradation of the test compound is assayed in a human hepatocyte suspension. Human hepatocytes (typically cryopreserved) are incubated in an appropriate buffer system (e.g. Dulbecco's modified eagle medium plus 3.5 μg glucagon/500 mL, 2.5 mg insulin/500 mL and 3.75 mg/500 mL hydrocortison) containing 5% species serum. Following a (typically) 30 min preincubation in an incubator (37° C., 10% CO2), 5 μl of test compound solution (80 μM; from 2 mM stock solution in DMSO diluted 1:25 with medium) are added into 395 μl hepatocyte suspension (cell density in the range 0.25-5*10^6 cells/mL, typically 1*10^6 cells/mL; final concentration of test compound 1 μM, final DMSO concentration 0.05%). The cells are incubated for six hours (incubator, orbital shaker) and samples (25 μl) are taken at 0, 0.5, 1, 2, 4 and 6 hours. Samples are transferred into acetonitrile and pelleted by centrifugation (5 min) The supernatant is transferred to a new 96-deepwell plate, evaporated under nitrogen and resuspended. The decline of parent compound is analyzed by LC-MS/MS.
The intrinsic clearance CL_[…] is calculated as follows: CL_[…]=Dose/AUC=(Co/CD)/(AUD+clast/k)*1,000/60 (Co: initial concentration in the incubation [μM], CD: cell density of vital cells [10^6 cells/mL], AUD: area under the data [μM*h], clast: concentration of last data point [μM], k: slope of the regression line for parent decline [h^−1])
The calculated in vitro hepatic intrinsic clearance Q h can be scaled up to the intrinsic in vivo hepatic clearance and used to predict hepatic in vivo blood clearance (CL) by the use of a liver model (well stirred model): CL_[…]_INVIVO[ml/min/kg]=(CL_[…][μL/min/10^6cells]*hepatocellularity[10^6cells/g liver]*liver factor[g/kg bodyweight])/1,000 CL[ml/min/kg]=CL_[…]_INVIVO[ml/min/kg]*hepatic blood flow [ml/min/kg]/(CL_[…]_INVIVO[ml/min/kg]+hepatic blood flow[ml/min/kg]) Qh[%]=CL[ml/min/kg]/hepatic blood flow[ml/min/kg]) (Hepatocellularity, human: 120*10^6 cells/g liver; liver factor, human: 25.7 g/kg bodyweight; blood flow, human: 21 ml/(min*kg)) Based on this assay.
The calculated in vitro hepatic intrinsic clearance values of selected compounds in the metabolic stability assay with human hepatocytes described above are listed in Table 4.

neutrophil elastase = neutrophil elastase (Homo sapiens (Human), UniProt P08246); assay: Human Neutrophil Elastase Assay; assay type: biochemical; settings: substrate MeOSuc-Ala-Ala-Pro-Val-AMC
Aqueous solubility = assay type: physicochemical; settings: McIlvaine buffer pH 6.8, 2.5% DMSO; for solubility at 24 h: McIlvaine buffer with 2.5% DMSO, aqueous buffer, kinetic from dmso stock; for Aqueous solubility: 24 h
Description: Assay for Determination of Aqueous Solubility
Starting from a 10 mM DMSO stock solution, aliquots are diluted with acetonitrile/water (1/1) and McIlvaine buffer pH 6.8, respectively. After 24 h of shaking, the solutions or suspensions are filtered and analyzed by LC-UV. The amount dissolved in buffer is compared to the amount dissolved in the acetonitrile/water (1/1) solution. Solubility is measured from 0.001 to 0.125 mg/ml at a DMSO concentration of 2.5%. If more than 90% of the compound is dissolved in buffer, the value is marked with “>”.

Chain of neutrophil elastase (P08246 30-247): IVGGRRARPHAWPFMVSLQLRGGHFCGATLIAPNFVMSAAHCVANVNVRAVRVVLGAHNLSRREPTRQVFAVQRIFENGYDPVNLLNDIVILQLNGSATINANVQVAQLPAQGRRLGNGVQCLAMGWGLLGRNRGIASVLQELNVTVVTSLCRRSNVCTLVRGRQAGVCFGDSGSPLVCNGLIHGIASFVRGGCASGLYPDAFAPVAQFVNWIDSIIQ

## CC(=O)C1=C(C)N(c2cccc(C(F)(F)F)c2)C(=O)N(C)C1c1ccc(C#N)cc1C(=O)NCC(C)(C)O (centres unmarked) [Example 1.22]
[1]
  half-life at 1 μM: > 2.17 h
Human hepatocytes
  Qh: 15%
Neutrophil elastase
  IC50: 1.4 nM
Aqueous solubility
  solubility at 24 h: 65 µg/mL (≈ 123 µM)

## CNC(=O)c1cc(C#N)ccc1[C@@H]1C(C(C)=O)=C(C)N(c2cccc(C(F)(F)F)c2)C(=O)N1C [Example 13.1]
[1]
  t1/2 INVITRO: >2.17 h
Human hepatocytes
  Qh: 16%
Neutrophil elastase
  IC50: < 1 nM
Aqueous solubility
  Aqueous solubility: 51 µg/mL

## CC(=O)C1=C(C)N(c2cccc(C(F)(F)F)c2)C(=O)N(C)C1c1ccc(C#N)cc1C(=O)NCCF (centres unmarked) [Example 1.10]
[1]
  t1/2 INVITRO: >2.17 h
Human hepatocytes
  Qh: 27%
Neutrophil elastase
  IC50: < 1 nM
Aqueous solubility
  Aqueous solubility: 66 µg/mL

## CC(=O)C1=C(C)N(c2cccc(C(F)(F)F)c2)C(=O)N(C)[C@@H]1c1ccc(C#N)cc1-c1ccn(C)c(=O)c1 [Example 17, 4-[(R)-5-Acetyl-3,6-dimethyl-2-oxo-1-(3-trifluoromethyl-phenyl)-1,2,3,4-tetrahydro-pyrimidin-4-yl]-3-(1-methyl-2-oxo-1,2-dihydro-pyridin-4-yl)-benzonitrile]
[1]
  half-life at 1 μM: > 2.17 h
Human hepatocytes
  Qh: 6%
Neutrophil elastase
  IC50: < 1 nM
Aqueous solubility
  solubility at 24 h: 62 µg/mL (≈ 119 µM)

## CC(=O)C1=C(C)N(c2cccc(C(F)(F)F)c2)C(=O)N(C)C1c1ccc(C#N)cc1C(=O)NC1CC1 (centres unmarked) [Example 1.8]
[1]
  t1/2 INVITRO: 1.83 h
Human hepatocytes
  Qh: 22%
Neutrophil elastase
  IC50: < 1 nM
Aqueous solubility
  Aqueous solubility: 76 µg/mL

## CC(=O)C1=C(C)N(c2cccc(C(F)(F)F)c2)C(=O)N(C)C1c1ccc(C#N)cc1C(=O)N1CCn2ncnc2C1 (centres unmarked) [Example 1.73]
[1]
  half-life at 1 μM: 2 h
Human hepatocytes
  Qh: 19%
Neutrophil elastase
  IC50: < 1 nM
Aqueous solubility
  solubility at 24 h: 73 µg/mL (≈ 130 µM)

## CC(=O)C1=C(C)N(c2cccc(C(F)(F)F)c2)C(=O)N(C)[C@@H]1c1ccc(C#N)cc1-c1ccc(=O)n(C)c1 [Example 16, 4-[(R)-5-Acetyl-3,6-dimethyl-2-oxo-1-(3-trifluoromethyl-phenyl)-1,2,3,4-tetrahydro-pyrimidin-4-yl]-3-(1-methyl-6-oxo-1,6-dihydro-pyridin-3-yl)-benzonitrile]
[1]
  half-life at 1 μM: > 2.17 h
Human hepatocytes
  Qh: 5%
Neutrophil elastase
  IC50: < 1 nM
Aqueous solubility
  solubility at 24 h: 73 µg/mL (≈ 140 µM)

## CC(=O)C1=C(C)N(c2cccc(C(F)(F)F)c2)C(=O)N(C)C1c1ccc(C#N)cc1C(=O)NCC#N (centres unmarked) [Example 1.6]
[1]
  t1/2 INVITRO: 2.17 h
Human hepatocytes
  Qh: 25%
Neutrophil elastase
  IC50: < 1 nM
Aqueous solubility
  Aqueous solubility: 70 µg/mL
